Source: patent publication US20020098186A1, “Use of endothelin inhibitors for treatment or prevention of fibrotic disorders” (priority 1999, published 2002)

Legend:
[1] = system: desmin-positive cells (rat hepatic stellate cells); test: Desmin staining of liver sections (activated hepatic stellate cells); type: in vivo; settings: LU-treated animals (data not shown)
[2] = system: liver collagen; test: Liver collagen (hydroxyproline) content in BDO rats; type: in vivo, rat
Description: (§1) Female adult wistar rats, average weight 206±19 g, underwent the following microsurgical procedure under an operating microscope (OPMI 6-2, Zeiss, Germany) (B. Gerling, M. Becker, J. Waldschmidt, D. Schuppan (1996). J. Hepatol. 25:79-84; G. Boigk, L. Stroedter, H. Herbst H, et al. (1997). Hepatology 26:643-639.): 1. midline abdominal incision following anaesthesia with 100 mg/kg ketamine-hydroochloride (Ketanest®, Parke-Davis, Germany) and 10 mg/kg 5,6-dihydro-2-(2,6-xylidino)-4H-1,3-thiazine-hydrochloride (Rompun®, Bayer, Germany); 2. dissection of the common bile duct, insertion of a teflon catheter (Abbocath -T 26 G, venisystems, U.S.A.) and placement of a distal complete and a proximal incomplete ligature with 5-0 silk (Permahand , Ethicon, Germany); 3. retrograde injection of sodium-amidotrizoate (Ethibloc®, Ethicon Germany) at a dose of 0.02 ml/100 g body weight; 4. removal of the catheter, closure of the proximal ligature, scission of the bile duct between the ligatures and wound closure. After bile duct occlusion (BDO), animals received normal chow (Altromin®, Lage, Germany) and were allowed free access to water. […] The following therapeutic groups were formed: 1. BDO and LU at 80 mg/kg/d for 6 weeks (BDO 80/1-6:n=20); 2. BDO and LU at 80 mg/kg/d from week 4-6 of BDO (BDO 80/4-6:n=20); 3. BDO and LU at 10 mg/kg/d (sham 80/ 1-6:n=10), rats without medication (control: n=10) and bile duct occluded animals without treatment for 6 weeks (BDO: n=20) served as controls. […]
Hydroxyproline (HYP) was quantified in duplicates from 0.2 g of formalin-fixed liver as described (d. Schuppan, J. M. Dumont, K. Y. Kim, et al (1986). J. Hepatol. 3:27-37; C. Genovese; D. Rowe; B. Kream (1984). Biochemistry 23. 6210-6216.). […] Absorption was read at 558 nm and HYP concentrations were determined from a standard curve with 0 to 1.6 μg HYP (Merck, Germany). The hepatic HYP concentration was calculated using the formula [formula]
and the total liver HYP content calculated by multiplication with the liver weight.

[3] = Body and organ weights of rats with bile duct occlusion (BDO) or sham operation; type: in vivo
Description: as §1, with “3.” for “3. BDO and LU at 10 mg/kg/d (sham 80/ 1-6:n=10), rats without medication (control: n=10) and bile duct occluded animals without treatment for 6 weeks (BDO: n=20) served as controls.”
Early mortality (within 1 h to 3 days) in rats with BDO was due to local infection and amounted to 9%. […] After 6 weeks rats were sacrificed under ketanest(rompun-anaesthesia by puncture of the right ventricle and exsanguination. Heart, liver, spleen and kidneys were weighed, and 1-2 g pieces of the left and the right liver lobes fixed in 4% formalin for histology and hydroxyproline (HYP) determinations.

[4] = system: rat secondary biliary liver fibrosis (BDO); test: Histological assessment (staging) of liver fibrosis in BDO rats; type: in vivo; settings: Sham (sham operation with LU 80 mg/kg/d 6 weeks)
[5] = BDO/LU 80/1-6: BDO, LU 80 mg/kg/d week 1-6, n = 10
[6] = BDO/LU 80/4-6: BDO, LU 80 mg/kg/d week 4-6, n = 14
[7] = Sham/LU: sham operation, LU 80 mg/kg/d for 6 weeks, n = 10

COc1cc(OC)nc(O[C@H](C(=O)O)C(OC)(c2ccccc2)c2ccccc2)n1 [LU]
Number of desmin-positive cells in liver sections [1]: significantly reduced
Reduction of relative liver collagen ([2]; 10 mg/kg/d over 6 weeks of BDO): 35%
Reduction of hepatic collagen ([2]; 80 mg LU/kg/d from week 4-6 after BDO, p<0.001): ~50%
Reduction of liver collagen (both as relative and total liver collagen content) ([2]; 80 mg LU/kg/d over the 6 weeks of BDO, vs untreated BDO, p<0.001): 50-55%
B.W. [3, 5]: 293.0 ± 32.89 g
Liver W. [3, 5]: 24.73 ± 4.47 g
Spleen W. [3, 5]: 1.78 ± 0.47 g
B.W. [3, 6]: 259.1 ± 30.2 g
Liver W. [3, 6]: 23.01 ± 5.33 g
Spleen W. [3, 6]: 1.62 ± 0.46 g
B.W. [3, 7]: 305.8 ± 23.40 g
Liver W. [3, 7]: 11.98 ± 1.95 g
Spleen W. [3, 7]: 0.73 ± 0.08 g
Liver and spleen weights ([3]; rats with BDO): reduced liver and spleen weights dose-dependently
Weights of kidneys, heart and lungs ([3]; rats with BDO, high and low dose groups (not shown)): neither nor the low dose groups demonstrated significant differences
Histological assessment of fibrosis: animals at Stage 0 [4]: 10
